Assay results as given in US8278312B2, “Imidazo 1,2-a pyrimidine derivatives for the treatment of diseases such as diabetes” (Merck Patent Gesellschaft mit Beschränkter Haftung, priority 2007, dated 2012).

Experiments:
[1] = biological target: T1, SGLT1 (Homo sapiens, UniProt P13866); assay: 14C-AMG uptake in BHK cells transfected with SGLT1 (96-well cell-based assay); settings: 50 μM AMG, 37° C., 90 min
T1 construct: expressed in transfected cells
T1 sequence (P13866 1-664): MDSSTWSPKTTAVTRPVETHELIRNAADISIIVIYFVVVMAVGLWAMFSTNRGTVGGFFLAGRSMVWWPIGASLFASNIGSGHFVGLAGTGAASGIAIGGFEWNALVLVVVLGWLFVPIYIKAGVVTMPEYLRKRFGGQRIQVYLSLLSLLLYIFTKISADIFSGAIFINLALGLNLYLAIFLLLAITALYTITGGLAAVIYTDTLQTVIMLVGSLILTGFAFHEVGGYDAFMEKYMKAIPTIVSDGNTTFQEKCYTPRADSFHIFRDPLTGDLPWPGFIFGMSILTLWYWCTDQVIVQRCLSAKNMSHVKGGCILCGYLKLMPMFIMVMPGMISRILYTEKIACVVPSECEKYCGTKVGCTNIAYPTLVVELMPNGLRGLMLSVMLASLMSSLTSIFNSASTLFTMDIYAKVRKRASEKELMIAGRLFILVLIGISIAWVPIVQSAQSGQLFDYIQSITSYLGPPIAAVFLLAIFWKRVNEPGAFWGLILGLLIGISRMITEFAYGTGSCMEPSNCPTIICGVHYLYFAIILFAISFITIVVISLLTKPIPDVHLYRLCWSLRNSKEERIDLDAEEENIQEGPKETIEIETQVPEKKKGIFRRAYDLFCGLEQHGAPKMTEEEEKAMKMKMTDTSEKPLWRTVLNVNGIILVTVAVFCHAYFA
Description: (§1) The compounds can be tested for their SGLT inhibition properties by means of BHK cells expressing SGLT1 and SGLT2. The production of the cells and the testing can be carried out as described below.
To construct the SGLT1 expression vector (KL225), the SLC5A1 gene (homologous to NM_000343) was amplified from a cDNA library using standard PCR technology and cloned over NheI/XhoI sites into the pcDNA3.1 expression vector (Invitrogen) containing neomycin as a selection marker. In this vector, transcription uses the enhancer/promoter of human cytomegalovirus.
(§2) The final vector KL225 together with an additional vector containing a dihydrofolate reductase gene as a selection marker was introduced into cells. Transfection into BHK21 cells (ATCC CCL-10), cultivated in DMEM medium (GIBCO/BRL), supplemented with 10% foetal calf serum (FCS) and 20 mM glutamine, was carried out using calcium phosphate transfections according to Graham, F. L. and van der Ebb, A. J. (1973), Virology 52: 456 with 5-20 μg of uncut plasmids for 10^7 cells. Stable transfectants were selected in medium containing 1 mg/ml of G418 (GIBCO/BRL) and 20-5000 nM methotrexate as final concentration, where only cells which expressed the neomycin gene and overexpressed the dhfr gene were able to grow. After growth for 2-3 weeks, the cells were cloned (0.5 cells/well) and the clones were investigated for SGLT expression in radioactivity uptake tests. […]
(§3) A 96-well cell-based assay was developed and adapted to HTS requirements:
(§4) BHK cells (transfected with SGLT1 or SGLT2) were seeded into 96-well microtitre plates (Cultureplates, Perkin Elmer). After at least 24 h, medium was removed, and the cell layer was washed with assay buffer (140 mM NaCl, 2 mM KCl, 1 mM CaCl2, 1 mM MgCl2, 10 mM HEPES, 5 mM Tris, adjusted to pH 7.4 using 1 M KOH). After addition of 40 μl of assay buffer, 50 μl of AMG (50 μM for SGLT1 and 2 mM for SGLT2) in the presence or absence of compounds, the cells were incubated in a total volume of 100 μl at 37° C. for 90 min. Supernatant was removed by suction and discarded. Cells were washed and lysed by addition of 50 μl of water. After 10 min at room temperature, 200 μl of Micrsoscint 40 (Perkin Elmer) were added. The radioactivity was counted in a Topcount microplate scintillation counter (Perkin Elmer). The non-specific uptake was determined in sodium-free assay buffer (266 mM sucrose, 2 mM KCl, 1 mM CaCl2, 1 mM MgCl2, 10 mM HEPES, 5 mM Tris, adjusted to pH 7.4 using 1 M KOH).

[2] = biological target: T2, SGLT2 (Homo sapiens, UniProt P31639); assay: 14C-AMG uptake in BHK cells transfected with SGLT2 (96-well cell-based assay); settings: 2 mM AMG, 37° C., 90 min
T2 construct: expressed in transfected cells
T2 sequence (P31639 1-672): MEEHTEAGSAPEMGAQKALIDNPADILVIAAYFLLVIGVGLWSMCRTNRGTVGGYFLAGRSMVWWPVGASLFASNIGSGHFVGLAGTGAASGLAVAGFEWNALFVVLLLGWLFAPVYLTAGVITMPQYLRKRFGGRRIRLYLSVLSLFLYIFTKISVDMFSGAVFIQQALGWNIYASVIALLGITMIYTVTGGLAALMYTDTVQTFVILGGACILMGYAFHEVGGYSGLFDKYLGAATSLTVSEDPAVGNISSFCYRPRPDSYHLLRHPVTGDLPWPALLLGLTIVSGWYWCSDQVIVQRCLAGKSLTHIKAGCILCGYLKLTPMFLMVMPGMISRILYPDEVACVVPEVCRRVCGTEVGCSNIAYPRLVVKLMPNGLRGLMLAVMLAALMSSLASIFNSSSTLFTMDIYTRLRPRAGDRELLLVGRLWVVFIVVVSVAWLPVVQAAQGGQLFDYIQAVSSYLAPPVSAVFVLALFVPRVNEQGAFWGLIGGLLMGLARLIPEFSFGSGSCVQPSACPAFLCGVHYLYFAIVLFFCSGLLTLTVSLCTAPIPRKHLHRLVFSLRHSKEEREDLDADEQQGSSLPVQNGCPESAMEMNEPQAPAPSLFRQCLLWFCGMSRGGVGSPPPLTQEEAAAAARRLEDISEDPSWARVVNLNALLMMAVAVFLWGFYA
Description: as §1
To construct the SGLT2 expression vector (KL224), the SLC5A2 gene (homologous to NM_003041) was amplified from a cDNA library using standard PCR technology and cloned over NheI/XhoI sites into PCI-neo expression vector (Promega) containing neomycin as a selection marker. In this vector, transcription uses the enhancer/promoter of human cytomegalovirus and the SV40 polyadenylation signal.
as §2, with “KL224” for “KL225”
as §3, §4

| Molecule | IC50 [1] [nM] | IC50 [2] [nM] |
| --- | --- | --- |
| COc1cc(OC)c(-c2nc3ncccn3c2Nc2c(Cl)cccc2Cl)c(-c2n[nH]c(=O)o2)c1 [Compound A6, 5-{2-[3-(2,6-dichlorophenylamino)imidazo[1,2-a]-pyrimidin-2-yl]-3,5-dimethoxyphenyl}-3H-1,3,4-oxadiazol-2-one] | > 10000 | 1000 to 10000 |
| CCc1cccc(OCC(N)=O)c1-c1nc2ncccn2c1Nc1c(C)cccc1C [Compound A8, 2-{2-[3-(2,6-dimethylphenylamino)imidazo[1,2-a]-pyrimidin-2-yl]-3-ethylphenoxy}acetamide] | 1000 to 10000 | 1000 to 10000 |
| CNc1nnc(-c2cc(OC)ccc2-c2nc3ncccn3c2Nc2c(C)cccc2C)o1 [Compound A21, (2,6-Dimethylphenyl)-{2-[4-methoxy-2-(5-methylamino-1,3,4-oxadiazol-2-yl)-phenyl]imidazo[1,2-a]pyrimidin-3-yl}-amine] | > 10000 | 10 to 1000 |
| CNc1nnc(-c2cccc(F)c2-c2nc3ncccn3c2Nc2c(C)cccc2Cl)o1 [Compound A26, (2-Chloro-6-methylphenyl)-{2-[2-fluoro-6-(5-methylamino-1,3,4-oxadiazol-2-yl)-phenyl]imidazo[1,2-a]pyrimidin-3-yl}-amine] | 1000 to 10000 | 10 to 1000 |
| CNc1nnc(-c2ccccc2-c2nc3ncccn3c2Nc2c(C)noc2C)o1 [Compound A25, (3,5-Dimethylisoxazol-4-yl)-{2-[2-(5-methylamino-1,3,4-oxadiazol-2-yl)-phenyl]imidazo[1,2-a]pyrimidin-3-yl}-amine] | > 10000 | > 10000 |
| CNc1nnc(-c2ccccc2-c2nc3ncccn3c2Nc2c(Cl)cc(F)cc2Cl)o1 [Compound A13, (2,6-Dichloro-4-fluorophenyl)-{2-[2-(5-methylamino-1,3,4-oxadiazol-2-yl)-phenyl]imidazo[1,2-a]pyrimidin-3-yl}-amine] | 1000 to 10000 | 10 to 1000 |
| COc1cc(C(N)=O)c(-c2nc3ncccn3c2Nc2c(Cl)cccc2Cl)c(OC)c1OC [Compound A17, 2-[3-(2,6-dichlorophenylamino)imidazo[1,2-a]pyrimidin-2-yl]-3,5,4-trimethoxybenzamide] | > 10000 | 1000 to 10000 |
| (2,6-Dichlorophenyl)-{2-[2-(5-methyl-amino-1,3,4-oxadiazol-2-yl)phenyl]-imidazo[1,2-a]pyrimidin-3-yl}amine [Compound A14] | 1000 to 10000 | 10 to 1000 |
| COc1cc(C)c(-c2nc3ncccn3c2Nc2c(C)cccc2C)c(OCC(N)=O)c1 [Compound A10, 2-{2-[3-(2,6-Dimethylphenylamino)-imidazo[1,2-a]pyrimidin-2-yl]-5-methoxy-3-methylphenoxy}acetamide] | > 10000 | 10 to 1000 |
| CNc1nnc(-c2cc(Cl)cc(Cl)c2-c2nc3ncccn3c2Nc2c(C)cccc2C)o1 [Compound A16, {2-[2,4-Dichloro-6-(5-methylamino-1,3,4-oxadiazol-2-yl)phenyl]imidazo[1,2-a]-pyrimidin-3-yl}-(2,6-dimethylphenyl)amine] | 1000 to 10000 | 10 to 1000 |
| Cc1cc(C)n2c(Nc3c(C)cccc3C)c(-c3ccccc3OCC(N)=O)nc2n1 [Compound A2] | > 10000 | > 10000 |
| CNc1nnc(-c2cc(OC)cc(OC)c2-c2nc3ncccn3c2Nc2c(Cl)cc(F)cc2Cl)o1 [Compound A4, (2,6-Dichloro-4-fluorophenyl)-{2-[2,4-dimethoxy-6-(5-methylamino-1,3,4-oxadiazol-2-yl)phenyl]imidazo[1,2-a]-pyrimidin-3-yl}amine] | 10 to 1000 | 10 to 1000 |
| CNc1nnc(-c2cc(OC)cc(OC)c2-c2nc3ncccn3c2Nc2c(C)cccc2C)o1 [Compound A11, {2-[2,4-Dimethoxy-6-(5-methylamino-1,3,4-oxadiazol-2-yl)phenyl]imidazo-[1,2-a]pyrimidin-3-yl}-(2,6-dimethyl-phenyl)amine] | 1000 to 10000 | 10 to 1000 |
| CCc1cc(OC)cc(OCC(N)=O)c1-c1nc2ncccn2c1Nc1c(Cl)cccc1Cl [Compound A12, 2-{2-[3-(2,6-Dichlorophenylamino)-imidazo[1,2-a]pyrimidin-2-yl]-3-ethyl-5-methoxyphenoxy}acetamide] | > 10000 | 10 to 1000 |
| CNc1nnc(-c2cccc(Cl)c2-c2nc3ncccn3c2Nc2c(C)cccc2C)o1 [Compound A19, {2-[2-Chloro-6-(5-methylamino-1,3,4-oxadiazol-2-yl)phenyl]imidazo[1,2-a]-pyrimidin-3-yl}-(2,6-dimethylphenyl)amine] | 1000 to 10000 | 10 to 1000 |
| CNc1nnc(-c2cccc(F)c2-c2nc3ncccn3c2Nc2c(C)cc(F)cc2C)o1 [Compound A27, (4-Fluoro-2,6-dimethylphenyl)-{2-[2-fluoro-6-(5-methylamino-1,3,4-oxadiazol-2-yl)phenyl]imidazo[1,2-a]pyrimidin-3-yl}-amine] | 1000 to 10000 | 10 to 1000 |
| COC(=O)c1cccc(Cl)c1-c1nc2ncccn2c1Nc1c(C)cccc1C [Compound A20, Methyl 3-chloro-2-[3-(2,6-dimethyl-phenylamino)imidazo[1,2-a]pyrimidin-2-yl)benzoate] | > 10000 | 10 to 1000 |
| CCc1cccc(OCC(N)=O)c1-c1nc2ncccn2c1Nc1c(Cl)cccc1Cl [Compound A7] | 1000 to 10000 | 10 to 1000 |
